Key:
[1] = system: Small Intestinal Organoids; conditions: 30 uM DCA, 2 hours; GLP-1 (Active) assay; cited from earlier work
[2] = system: Mixed primary cultures (Colon); conditions: 10 mM, 2-4 hours; Active GLP-1 ELISA-kit (Millipore); cited from earlier work
[3] = system: Mixed primary cultures (upper half of SI); conditions: 10 mM, 2-4 hours; Active GLP-1 ELISA-kit (Millipore); cited from earlier work
[4] = system: Endoscopic duodenal biopsies; conditions: 300 mM, Intraduodenal Glucose Infusion, 30 min; GLP-1 (Active) ELISA Kit (Millipore); cited from earlier work
[5] = system: Ileum-Chip; test: TNF-α induced inflammation in Ileum-Chip: chemokine release (ELISA) and I-CAM1/MadCAM1 expression; format: cell-based, human; design: Apical CXCL11 (1-TAC) / Apical CCL20 (MIP-3 alpha) / Basal CCL25 (TECK) / Basal CXCL8 (IL-8) / Basal CXCLIO (IP-10) / Basal CXCL11 (1-TAC) / Basal CCL20 (MIP-3 alpha) / Apical CCL25 (TECK) / Apical CXCL8 (IL-8) / Apical CXCLIO (IP-10): unit not given here
Source text: (§1) TNFα induces increased membrane expression of I-CAM1 and MadCAM1 in intestinal microvascula endothelium.
(§2) Identification of MadCAM1 and characterization of microvascular response to inflammation in Ileum-Chip. Inflammation-Induced Expression of I-CAM1 and MadCAM1 in Ileum-Chip. Read-outs: mRNA expression of vascular adhesion molecules (I-CAM1, MadCAM1); Immunofluorescent detection of I-CAM1 and MadCAM1; Epithelial and vascular release of inflammatory chemokines using ELISA (Meso Scale Discovery). FIG. 13. FIG. 14.
Summary of Evaluation of Microvascular Function in Ileum-Chip.

[6] = system: intestinal microvascular endothelium; test: TNF-α stimulation of microvasculature alone: chemokine release; format: cell-based, human; design: unit not given here; conditions: TNF-α 100 U/ml, n = 1, 4 chips/condition
Source text: as §2

[7] = system: Ileum-Chip; test: Intestinal barrier function of Ileum-Chip under TNF-α; format: cell-based, human; conditions: vascular exposure, 100 U/ml (~2 ng/ml)
Description: As one example, to evaluate the integrity of the intestinal barrier 3 kDa Cascade Blue dextran (Sigma, D7132) was added to the epithelial compartment of the Duodenum-Chip at 0.1 mg/ml on the day of connecting a microfluidic device to flow, e.g., see exemplary timelines. Effluents of the endothelial compartment were sampled 3 hours after the addition of a dye, up to 24 hours, up to 48 hours, up to 72 hours, or at 48 hour intervals until the end of the assay, in order to determine the concentration of dye that has diffused through the membrane.
The apparent paracellular permeability (Papp) was calculated based on a standard curve and using the following formula: […]
as §1

[8] = system: GLUTag Cells; conditions: 250 uM, 36 minutes; Active GLP-1 (ver. 2) Assay Kit (Mesoscale Discovery); cited from earlier work
[9] = TNF-α 100 U/ml, n = 1, 4 chips/condition

Compound: C[C@H](CCC(=O)O)[C@H]1CC[C@H]2[C@@H]3CC[C@@H]4C[C@H](O)CC[C@]4(C)[C@H]3C[C@H](O)[C@]12C [DCA]
- GLP-1 Concentration (fold increase) [1]: 2.5-fold increase

Compound: OC[C@H]1OC(O)[C@H](O)[C@@H](O)[C@@H]1O (stereo partly shown) [Glucose]
- GLP-1 Concentration (fold increase), Colon [2]: 10-fold increase
- GLP-1 Concentration (fold increase), SI [3]: (Colon), 2-fold
- GLP-1 Concentration (fold increase) [4]: 3-fold increase

Compound: TNF-α
- membrane expression of I-CAM1 and MadCAM1 in intestinal microvascular endothelium ([5]; 100 U/ml): increased
- Apical CCL20 (MIP-3 alpha) [5, 9]: 170.92 ± 36.8
- Apical CCL25 (TECK) [5, 9]: 17.11 ± 9.2
- Apical CXCL8 (IL-8) [5, 9]: 16.30 ± 5.9
- Apical CXCL11 (1-TAC) [5, 9]: 302.01 ± 111.8
- Apical CXCLIO (IP-10) [5, 9]: 6.34 ± 2.3
- Basal CCL20 (MIP-3 alpha) [5, 9]: 93.93 ± 18.3
- Basal CCL25 (TECK) [5, 9]: 117.91 ± 16.1
- Basal CXCL8 (IL-8) [5, 9]: 1868.99 ± 198.7
- Basal CXCL11 (1-TAC) [5, 9]: 26.00 ± 9.1
- Basal CXCLIO (IP-10) [5, 9]: 502.04 ± 287.1
- Apical CCL20 (MIP-3 alpha) [6]: 0.74 ±0.9
- Apical CXCL8 (IL-8) [6]: 105.5 ± 74.2
- Apical CXCL11 (1-TAC) [6]: 0.53 ± 1.0
- Apical CXCLIO (IP-10) [6]: 0.19 ± 0.1
- Basal CCL20 (MIP-3 alpha) [6]: 3.51 ± 2.8
- Basal CXCL8 (IL-8) [6]: 1835.44 ± 282.8
- Basal CXCL11 (1-TAC) [6]: 1.74 ± 1.4
- Basal CXCLIO (IP-10) [6]: 35.22 ± 20.1
- effect on intestinal barrier function [7]: does not affect

Compound: CCCCCCCC/C=C\CCCCCCCC(=O)O [Oleic Acid]
- GLP-1 Concentration (fold increase) [8]: 4-fold increase

Reference: patent US20200224136A1, “INTESTINE-CHIP: DIFFERENTIAL GENE EXPRESSION MODEL” (priority 2019, published 2020)
